The experiment addresses T1, human kinase Mps-1 (Homo sapiens, UniProt P33981).
T1 construct: N-terminally GST-tagged human full length recombinant Mps-1 kinase; GST (N); purchased Invitrogen, Karslruhe, Germany PV4071
T1 sequence (P33981 1-857): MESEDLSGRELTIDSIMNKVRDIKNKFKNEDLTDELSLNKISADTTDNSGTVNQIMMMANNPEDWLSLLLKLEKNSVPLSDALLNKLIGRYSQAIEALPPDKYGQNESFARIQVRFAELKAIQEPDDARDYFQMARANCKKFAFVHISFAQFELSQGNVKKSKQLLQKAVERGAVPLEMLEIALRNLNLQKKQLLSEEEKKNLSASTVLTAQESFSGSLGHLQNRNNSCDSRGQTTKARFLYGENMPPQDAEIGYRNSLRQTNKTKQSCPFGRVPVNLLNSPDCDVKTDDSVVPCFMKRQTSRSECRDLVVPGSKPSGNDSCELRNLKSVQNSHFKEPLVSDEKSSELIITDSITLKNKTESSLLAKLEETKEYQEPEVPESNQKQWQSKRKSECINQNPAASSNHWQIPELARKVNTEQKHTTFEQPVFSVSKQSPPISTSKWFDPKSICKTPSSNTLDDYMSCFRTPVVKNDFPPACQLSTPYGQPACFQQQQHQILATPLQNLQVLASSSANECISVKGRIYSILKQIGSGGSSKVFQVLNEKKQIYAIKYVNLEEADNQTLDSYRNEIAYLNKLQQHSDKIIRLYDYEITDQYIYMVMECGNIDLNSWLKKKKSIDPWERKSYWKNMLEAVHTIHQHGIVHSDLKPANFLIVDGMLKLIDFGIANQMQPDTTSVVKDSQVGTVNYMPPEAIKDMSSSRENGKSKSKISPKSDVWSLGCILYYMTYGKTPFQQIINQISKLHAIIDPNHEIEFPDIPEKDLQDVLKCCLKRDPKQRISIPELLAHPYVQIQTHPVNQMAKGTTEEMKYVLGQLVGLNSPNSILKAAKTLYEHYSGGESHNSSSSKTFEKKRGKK
Briefly: Mps-1 kinase assay (TR-FRET). The following applies: Mps-1 TR-FRET kinase assay; avg; read-out: Mps1 avg (IC50 [mol/l]). The class given is biochemical. On the procedure:
The human kinase Mps-1 phosphorylates a biotinylated substrate peptide. Detection of the phosphorylated product is achieved by time-resolved fluorescence resonance energy transfer (TR-FRET) from Europium-labelled anti-phospho-Serine/Threonine antibody as donor to streptavidin labelled with cross-linked allophycocyanin (SA-XLent) as acceptor. Compounds are tested for their inhibition of the kinase activity.
N-terminally GST-tagged human full length recombinant Mps-1 kinase (purchased from Invitrogen, Karslruhe, Germany, cat. no PV4071) was used. As substrate for the kinase reaction a biotinylated peptide of the amino-acid sequence biotin-Ahx-PWDPDDADITEILG (C-terminus in amide form, purchased from Biosyntan GmbH, Berlin) was used.
For the assay 50 nl of a 100-fold concentrated solution of the test compound in DMSO was pipetted into a black low volume 384we11 microtiter plate (Greiner Bio-One, Frickenhausen, Germany), 2 μl of a solution of Mps-1 in assay buffer [0.1 mM sodium-ortho-vanadate, 10 mM MgCl2,2 mM DTT, 25 mM Hepes pH 7.7, 0.05% BSA (w/v), 0.001% Pluronic F-127] were added and the mixture was incubated for 15 min at 22° C. to allow pre-binding of the test compounds to Mps-1 before the start of the kinase reaction. Then the kinase reaction was started by the addition of 3 μl of a solution of 16.7 μM adenosine-tri-phosphate (ATP, 16.7 μM=>final conc. in the 5 μl assay volume is 10 μM) and peptide substrate (1.67 μM=>final conc. in the 5 μl assay volume is 1 μM) in assay buffer and the resulting mixture was incubated for a reaction time of 60 min at 22° C. The concentration of Mps-1 in the assay was adjusted to the activity of the enzyme lot and was chosen appropriate to have the assay in the linear range, typical enzyme concentrations were in the range of about 0.5 nM (final conc. in the 5 μl assay volume). The reaction was stopped by the addition of 5 μl of a solution of TR-FRET detection reagents (100 mM Hepes pH 7.4, 0.1% BSA, 40 mM EDTA, 140 nM Streptavidin-XLent [#61GSTXLB, Fa. Cis Biointernational, Marcoule, France], 1.5 nM anti-phospho(Ser/Thr)-Europium-antibody [#AD0180, PerkinElmer LAS, Rodgau-Jugesheinn, Germany]. Instead of the 1.5 nM anti-phospho(Ser/Thr)-Europium-antibody a mixture of 2 nM unlabeled anti-phospho ser/thr-pro antibody MPM-2 [Millipore cat. #05-368] and 1 nM LANCE EU-W1024 labeled anti-mouse IgG antibody [Perkin-Elmer, product no. AD0077] can be used).
The resulting mixture was incubated 1 h at 22° C. to allow the binding of the phosphorylated peptide to the anti-phospho(Ser/Thr)-Europium-antibody. Subsequently the amount of phosphorylated substrate was evaluated by measurement of the resonance energy transfer from the Europium-labelled anti-phospho(Ser/Thr) antibody to the Streptavidin-XLent. Therefore, the fluorescence emissions at 620 nm and 665 nm after excitation at 350 nm was measured in a Viewlux TR-FRET reader (PerkinElmer LAS, Rodgau-Jugesheinn, Germany). The “blank-corrected normalized ratio” (a Viewlux specific readout, similar to the traditional ratio of the emissions at 665 nm and at 622 nm, in which blank and Eu-donor crosstalk are subtracted from the 665 nm signal before the ratio is calculated) was taken as the measure for the amount of phosphorylated substrate. The data were normalised (enzyme reaction without inhibitor=0% inhibition, all other assay components but no enzyme=100% inhibition).
A general note: Time-resolved FRET reads energy transfer from a long-lived donor to a nearby acceptor.
Consider `CCCN1CC[C@H](Oc2ccc(NC(=O)c3c(C)nsc3Nc3cnc(C(F)(F)F)cn3)cn2)[C@H](F)C1` [Example 147, N-(6-{[(3R,4S)-3-fluoro-1-propylpiperidin-4-yl]oxy}pyridin-3-yl)-3-methyl-5-{[5-(trifluoromethyl)pyrazin-2-yl]amino}-1,2-thiazole-4-carboxamide], for which the IC50 is over 20 µM.
Under `Cc1nsc(Nc2cnc(C(F)(F)F)cn2)c1C(=O)Nc1ccc(O[C@H]2CCN(CC(F)(F)F)C[C@H]2F)nc1` [Example 145, N-(6-{[(3R,4S)-3-fluoro-1-(2,2,2-trifluoroethyl)piperidin-4-yl]oxy}pyridin-3-yl)-3-methyl-5-{[5-(trifluoromethyl)pyrazin-2-yl]amino}-1,2-thiazole-4-carboxamide] stands over 20 µM.
Under `Cc1nsc(Nc2cncc(C(F)(F)F)n2)c1C(=O)Nc1ccc(OC2CCN(C(=O)OC(C)(C)C)CC2)nc1` [Example 12, tert-Butyl 4-[(5-{[(3-methyl-5-{[6-(trifluoromethyl)pyrazin-2-yl]amino}-1,2-thiazol-4-yl)carbonyl]amino}pyridin-2-yl)oxy]piperidine-1-carboxylate] stands at least 20 µM; under `Cc1nsc(Nc2cnc3ccccc3n2)c1C(=O)Nc1ccc(NC2CC2)nc1` [Example 172, N-[6-(cyclopropylamino)pyridin-3-yl]-3-methyl-5-(quinoxalin-2-ylamino)-1,2-thiazole-4-carboxamide], over 20 µM.
Under `Cc1nsc(Nc2cnc(C(F)(F)F)cn2)c1C(=O)Nc1ccc(OCC2CCN(CC(F)F)C2)nc1` (stereo not shown) [Example 122, N-(6-{[1-(2,2-difluoroethyl)pyrrolidin-3-yl]methoxy}pyridin-3-yl)-3-methyl-5-{[5-(trifluoromethyl)pyrazin-2-yl]amino}-1,2-thiazole-4-carboxamide] stands at least 20 µM.
Regarding `Cc1nsc(Nc2cnc3ccccc3n2)c1C(=O)Nc1ccc(C(=O)NC2CN(C(=O)OC(C)(C)C)CC(F)(F)C2)cc1` (stereo not shown) [Example 158, tert-butyl 3,3-difluoro-5-{[4-({[3-methyl-5-(quinoxalin-2-ylamino)-1,2-thiazol-4-yl]carbonyl}amino)benzoyl]amino} piperidine-1-carboxylate], the IC50 is over 20 µM.
As for `Cc1nsc(Nc2cnc3ccccc3n2)c1C(=O)Nc1cccc(C(=O)N[C@@H](CCC(N)=O)C(=O)O)c1` [Example 103, N^2-[3-({[3-Methyl-5-(quinoxalin-2-ylamino)-1,2-thiazol-4-yl]carbonyl}amino)-benzoyl]glutamine], the IC50 amounted to 13 µM.
The same measure for `Cc1nsc(Nc2cnc(C(F)(F)F)cn2)c1C(=O)Nc1ccc(O[C@@H]2CCN(CCC(F)(F)F)C[C@@H]2F)nc1` [Example 139, N-(6-{[(3S,4R)-3-fluoro-1-(3,3,3-trifluoropropyl)piperidin-4-yl]oxy}pyridin-3-yl)-3-methyl-5-{[5-(trifluoromethyl)pyrazin-2-yl]amino}-1,2-thiazole-4-carboxamide]: over 20 µM; for `CC(=O)Nc1cc(NC(=O)c2c(C)nsc2Nc2ccc(C#N)cn2)ccc1F` [Example 152, N-(3-acetamido-4-fluorophenyl)-5-[(5-cyanopyridin-2-yl)amino]-3-methyl-1,2-thiazole-4-carboxamide]: over 20 µM; for `Cc1nsc(Nc2cnc(C(F)(F)F)cn2)c1C(=O)Nc1ccc(OCC2CCN(CCF)C2)nc1` (stereo not shown) [Example 121, N-(6-{[1-(2-fluoroethyl)pyrrolidin-3-yl]methoxy}pyridin-3-yl)-3-methyl-5-{[5-(trifluoromethyl)pyrazin-2-yl]amino}-1,2-thiazole-4-carboxamide]: at least 20 µM.
Regarding `Cc1nsc(Nc2cc(C#N)ccn2)c1C(=O)Nc1cccc(C(=O)N2CCCC2)c1` [Example 114, 5-[(4-Cyanopyridin-2-yl)amino]-3-methyl-N-[3-(pyrrolidin-1-ylcarbonyl)phenyl]-1,2-thiazole-4-carboxamide], the IC50 was at least 20 µM.
Under `Cc1nsc(Nc2ccc(C#N)cn2)c1C(=O)Nc1ccc(NC2CCCN(C(=O)OC(C)(C)C)C2)nc1` (stereo not shown) [Example 171, tert-butyt 3-({5-[({5-[(5-cyanopyridin-2-yl)amino]-3-methyl-1,2-thiazol-4-yl}carbonyl)amino]pyridin-2-yl}amino)piperidine-1-carboxylate] stands over 20 µM.
On to `Cc1nsc(Nc2cnc3ccccc3n2)c1C(=O)Nc1ccc(C(=O)N2CCCN(CC(F)(F)F)CC2)cc1` [Example 159], for which the IC50 is over 20 µM.
In the case of `Cc1nsc(Nc2cnc3ccccc3n2)c1C(=O)Nc1cccc(-c2nnc(C(C)(C)C)o2)c1` [Example 107, N-[3-(5-tert-Butyl-1,3,4-oxadiazol-2-yl)phenyl]-3-methyl-5-(quinoxalin-2-ylamino)-1,2-thiazole-4-carboxamide], the IC50 was at least 20 µM.
Under `Cc1nsc(Nc2ccc(C#N)cn2)c1C(=O)Nc1cccc(S(C)(=O)=O)c1` [Example 150, 5-[(5-cyanopyridin-2-yl)amino]-3-methyl-N-[3-(methylsulfonyl)phenyl]-1,2-thiazole-4-carboxamide] stands over 20 µM; under `Cc1noc(-c2cccc(NC(=O)c3c(C)nsc3Nc3cnc4ccccc4n3)c2)n1` [Example 106, 3-Methyl-N-[3-(3-methyl-1,2,4-oxadiazol-5-yl)phenyl]-5-(quinoxalin-2-ylamino)-1,2-thiazole-4-carboxamide], at least 20 µM; under `Cc1nsc(Nc2cnc3ccccc3n2)c1C(=O)Nc1cccc(C(=O)N2CCN(C)CC2)c1` [Example 102, 3-Methyl-N-{3-[(4-methylpiperazin-1-yl)carbonyl]phenyl}-5-(quinoxalin-2-ylamino)-1,2-thiazole-4-carboxamide], at least 20 µM.
Under `Cc1nsc(Nc2cnc(C(F)(F)F)cn2)c1C(=O)Nc1ccc(OC2CCN(CC(F)F)CC2)c(F)c1` [Example 164, N-(4-{[1-(2,2-difluoroethyl)piperidin-4-yl]oxy}-3-fluorophenyl)-3-methyl-5-{[5-(trifluoromethyl)pyrazin-2-yl]amino}-1,2-thiazole-4-carboxamide] stands over 20 µM; under `Cc1nsc(Nc2cnc3ccccc3n2)c1C(=O)Nc1cccc(C(=O)N2CCNCC2)c1` [Example 101, 3-Methyl-N-[3-(piperazin-1-ylcarbonyl)phenyl]-5-(quinoxalin-2-ylamino)-1,2-thiazole-4-carboxamide], 18 µM.

Source of the values: patent US20170334899A1, “AMINO-SUBSTITUTED ISOTHIAZOLES” (Bayer Pharma Aktiengesellschaft, priority 2014, published 2017).
